Laboratory results: patent US20240261305A1 (priority 2021, published 2024)

Key:
[1] = Stability of CBD at room temperature and in the dark; assay type: physicochemical; conditions: room temperature; for degradation of CBD: 3 months
in vivo [2] = conditions: mouse, po, mice
[3] = after oral administration; cited from earlier work
in vivo [4] = conditions: rat, po, rats
[5] = kinetic detection (oral bioavailability), sesame oil alone
[6] = oral bioavailability, administered as an unformulated oil extract
[7] = oral bioavailability, formulated (mixture of sesame oil, amaranth oil and squalene)

C=C(C)[C@@H]1CCC(C)=C[C@H]1c1c(O)cc(CCCCC)cc1O [CBD, cannabidiol]
degradation of CBD ([1]; CBD from ethanolic cannabis extract formulated in a mixture of sesame oil, amaranth and squalene (at least 0.1%)): 3%
degradation of CBD ([1]; CBD in products obtained by ethanolic extraction from cannabis): 8%
degradation of CBD ([1]; CBD in pure form (both amorphous and crystalline)): 11%
degradation of CBD ([1]; pure CBD formulated in a mixture of sesame oil, amaranth and squalene (at least 0.1%)): 4%
instability compared with unformulated CBD ([1]; CBD solubilised in sesame oil or amaranth oil or in squalene alone): did not show a statistically significant difference
bioavailability (in vivo [2]; [5]): 25 to 30%
bioavailability (in vivo [2]; [6]): 5 to 6%
bioavailability (in vivo [2]; [7]): ~50%
time to reach peak plasma concentration [3]: 1 to 4 h
bioavailability (in vivo [4]; [5]): 25 to 30%
bioavailability (in vivo [4]; [6]): 5 to 6%
bioavailability (in vivo [4]; [7]): ~60%
